{"source": "paper PMC4580987", "about": "“Catalytic site inhibition of insulin-degrading enzyme by a small molecule induces glucose intolerance in mice” (Nature Communications, 2015)", "key": {"C57BL/6J mice [1]": {"tested_on": "C57BL/6J mice", "assay": "Insulin tolerance test (ITT)", "format": "in vivo, mouse", "conditions": "50 mg kg^−1 ip", "protocol": "AUC for ITT were calculated to evaluate insulin sensitivity. Blood glucose levels were determined using an Accu-Check glucometer (Roche Diagnostics). […] The protocol was approved by the ethical comitee CEEA Nord Pas de Calais (CEEA75)."}, "[2]": {"assay": "LogD measurement octanol/PBS pH 7.4", "format": "physicochemical", "conditions": "read-out: Logd7.4", "protocol": "Ten microlitre of a 10 mM solution in DMSO of the compound are diluted either in 490 μl of PBS pH 7.4 or in organic solvent MeOH in a 700 μl-microtube (in triplicate). The tubes are gently shaken 24 h at room temperature, then centrifuged for 5 min at 4,000 r.p.m. The mixtures are filtered over 0.45 μm filters (Millex-LH Millipore). Twenty microlitre of sample are diluted in 180 μl of MeOH. The solubility is determined by the ratio of mass signal area PBS/ organic solvent. Forty microlitre of a 10 mM solution in DMSO of the compound were diluted in 1.960 ml of a 1/1 octanol /PBS at pH 7.4 mixture. The mixture was gently shaken 2 h at room temperature. Twenty microlitre of each phase was diluted in 480 μl of MeOH and analysed by LC–MS. Each compound is tested in triplicate. Log D was determined as the logarithm of the ratio of concentration of product in octanol and PBS respectively, determined by mass signals."}, "C57BL/6J mice [3]": {"tested_on": "C57BL/6J mice", "assay": "Pyruvate tolerance test", "format": "in vivo, mouse", "conditions": "50 mg kg^−1 ip, pyruvate 2 g kg^−1", "protocol": "Pyruvate tolerance test was performed on 18 h-fasted mice (12 week-old male C57BL/6J mice, n=8 for each group, randomized on blood glucose at the end of the fasting period). […] Fifteen minutes later, blood glucose was measured before and after (up to 120 min) intraperitoneal sodium pyruvate (2 g kg^−1) injection. The AUC of glycaemia versus time were calculated to estimate the total glucose synthesized from pyruvate. Blood glucose levels were determined using an Accu-Check glucometer (Roche Diagnostics). The protocol was approved by the ethical comitee CEEA Nord Pas de Calais (CEEA75)."}, "human NEP": {"target": "T1, human NEP (Homo sapiens, UniProt P08473)", "T1 construct": "purchased R&D Systems", "T1 sequence (P08473 whole entry)": "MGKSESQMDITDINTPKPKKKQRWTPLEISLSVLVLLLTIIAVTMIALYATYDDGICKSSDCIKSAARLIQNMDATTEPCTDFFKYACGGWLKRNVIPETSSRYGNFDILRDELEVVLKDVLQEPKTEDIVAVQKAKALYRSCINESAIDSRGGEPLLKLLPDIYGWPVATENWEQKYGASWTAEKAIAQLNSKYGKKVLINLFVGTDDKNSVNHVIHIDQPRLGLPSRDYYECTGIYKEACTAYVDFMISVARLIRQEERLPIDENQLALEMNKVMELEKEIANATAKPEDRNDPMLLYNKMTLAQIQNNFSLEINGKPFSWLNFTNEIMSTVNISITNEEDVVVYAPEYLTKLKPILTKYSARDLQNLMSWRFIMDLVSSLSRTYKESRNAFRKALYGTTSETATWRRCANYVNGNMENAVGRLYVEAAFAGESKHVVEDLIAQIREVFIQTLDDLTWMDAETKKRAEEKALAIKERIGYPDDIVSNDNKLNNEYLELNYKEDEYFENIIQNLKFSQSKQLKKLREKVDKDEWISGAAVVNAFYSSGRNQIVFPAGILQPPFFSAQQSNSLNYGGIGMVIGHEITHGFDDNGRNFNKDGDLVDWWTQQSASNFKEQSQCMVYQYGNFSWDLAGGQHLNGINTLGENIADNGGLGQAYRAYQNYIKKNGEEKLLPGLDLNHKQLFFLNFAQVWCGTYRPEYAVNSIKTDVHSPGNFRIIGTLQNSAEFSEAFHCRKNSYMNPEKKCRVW", "assay": "Neutral endopeptidase (NEP) selectivity assay", "format": "biochemical", "conditions": "means of two experiments minimum, s.d.±10%; read-out: Selectivity IC50 hNEP", "protocol": "Briefly, human NEP (R&D Systems; 200 ng ml^−1) was incubated 10 min at room temperature with compound in Hepes 50 mM, NaCl 100 mM, pH 7.4 and the enzymatic reaction started by adding the substrate (final concentration 200 μM). […] Briefly, human ACE (R&D Systems) was incubated 10 min at room temperature with compound in Tris 50 mM 1% NaCl pH 7.4 and the enzymatic reaction is started by adding the substrate (final concentration 300 μM). […] In vitro activity was assayed at CEREP.SA as follows."}, "C57BL/6J mice [4]": {"tested_on": "C57BL/6J mice", "assay": "Intraperitoneal glucose tolerance test (IPGTT)", "format": "in vivo, mouse", "conditions": "50 mg kg^−1 ip, intraperitoneal glucose 1.5 g kg^−1", "protocol": "OGTT and IPGTT were performed on 11 to 16 week-old male or female mice (n=4–7 per experimental group). C57BL/6J mice were purchased from Charles River Laboratories (France), Stock no. 000664. C57BL/6J Ide−/− mice were obtained from Guenette[20] and bred in the animal facility of INSERM U1151. WT C57BL/6J mice of the same genetic background were bred in the same animal facility in parallel. NOD Ide−/− mice were generated by backcrossing C57BL/6J Ide−/− mice with NOD wt mice bred in the animal facility of INSERM U1151 and maintained in this facility together with WT NOD mice. Normoglycemic WT and Ide−/− female NOD mice aged 14 weeks were used for OGTTs. Following a 6 h fasting period, a small tail cut was made, basal blood glucose was determined. […] Fifteen minutes later, blood glucose concentrations were measured before and after (up to 120 min, as shown) oral (2 g kg^−1 or 3 g kg^−1, as shown) or intraperitoneal (1.5 g kg^−1) glucose administration. […] Blood glucose levels were determined using an Accu-Check glucometer (Roche Diagnostics). Areas under the curves (AUC) for OGTT and IPGTT were calculated to evaluate glucose tolerance. Plasma insulin concentrations were measured by ELISA (cat. no. 10-1247-01,Mercodia) in blood samples collected 15 min before and 15 and 90 min relative to oral glucose injection. […]"}, "Microsomal stability": {"assay": "Microsomal stability", "format": "in vitro ADME", "conditions": "male, CD-1, pH 7.4, mouse liver microsomes, read-out: Microsomal stability m (t1/2)", "protocol": "Male mouse (CD-1) liver microsomes (BD Gentest) were used. All incubations were performed in duplicate in a shaking water bath at 37 °C. The incubation mixtures contained 1 μM compound with 1% methanol used as a vehicle, mouse liver microsomes (0.6 mg of microsomal protein per mL), 5 mM MgCl2, 1 mM NADP, 5 mM glucose 6-phosphate, 0.4 U ml^−1 glucose 6-phosphate dehydrogenase, and 50 mM potassium phosphate buffer (pH 7.4) in a final volume of 1.5 ml. Samples were taken at 5, 10, 20, 30 and 40 min after microsome addition, and reactions stopped by adding ice-cold acetonitrile containing 1 μM internal standard (four volumes). Centrifugation of the samples for 10 min at 10,000g and 4 °C allowed to pellet precipitated microsomal proteins, and supernatant was subjected LC−MS/MS analysis, in acetonitrile containing 1 μM internal standard. Each compound was quantified by converting the corresponding analyte/internal standard peak area ratios to percentage drug remaining, using the initial ratio values in control incubations as 100%. Propranolol, known as a high hepatic clearance drug in rodents, was used as a quality-control compound for the microsomal incubations. […] The slope of the linear regression from log percentage remaining versus incubation time relationships (-k) was used in the conversion to in vitro t1/2 values by: t1/2=−0.693/k."}}, "note": "“Also recorded” adds a separate entry of the source.", "data": [{"molecule": "O=C(C[C@@H](Cc1ccc2ccccc2c1)n1cc(CNC(=O)c2ccc(F)cc2)nn1)NO", "note": "[Compound 1]", "values": [{"measurement": "serum insulin concentrations during ITT", "setting": "C57BL/6J mice [1]; 0.75 U kg^−1 insulin, significant at 30 min", "result": "slightly increased"}, {"measurement": "glucose lowering effect of insulin during ITT", "setting": "C57BL/6J mice [1]; 30 and 60 min", "result": "Augments insulin action in vivo; also recorded: tended to enhance"}, {"measurement": "logD", "setting": "[2]", "result": 2.2}, {"measurement": "hepatic gluconeogenesis in pyruvate tolerance test", "setting": "C57BL/6J mice [3]", "result": "No effect on gluconeogenesis; also recorded: not altered"}, {"measurement": "IC50", "setting": "human NEP", "result": 2600, "unit": "nM"}, {"measurement": "plasma glucose / glucose tolerance in IPGTT", "setting": "C57BL/6J mice [4]", "result": "Impairs glucose tolerance in IPGTT"}, {"measurement": "half-life at 1 μM", "setting": "Microsomal stability", "result": 20, "unit": "min"}]}]}
